Tests used:
Assay type in all cases: in vivo
[1] = test system: ducksalad (Heteranthera limosa); experiment: Test B flooded paddy test plant response
Procedure, shortened: (§1)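 Compounds were added directly to paddy water over 2-leaf-stage plants in pots flooded 3 cm above soil, water depth maintained. Visual injury scored against controls after 13 to 15 days in greenhouse, 0 (none) to 100 (complete control); dash indicates no result.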

[2] = test system: barnyardgrass (Echinochloa crus-galli); experiment: Test B flooded paddy test plant response
Procedure, shortened: as §1

[3] = test system: umbrella sedge (Cyperus difformis); experiment: Test B flooded paddy test plant response
Procedure, shortened: as §1

[4] = test system: rice (Oryza sativa); experiment: Test B flooded paddy test plant response
Procedure, shortened: as §1

[5] = test system: large crabgrass (Digitaria sanguinalis); experiment: Test B pre-/postemergence plant response; settings: for Plant response rating, Crabgrass, Large: Postemergence
Procedure, shortened: (§2)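 Preemergence and postemergence (plants 2-18 cm, 1- to 4-leaf stage) applications used test chemicals in a non-phytotoxic solvent with surfactant. Plants were held in a greenhouse 13 to 15 days, then rated visually against controls on a 0-100 scale (0 no effect, 100 complete control).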

[6] = test system: cocklebur (Xanthium strumarium); experiment: Test B pre-/postemergence plant response; settings: for Plant response rating, Cocklebur: Postemergence
Procedure, shortened: as §2

[7] = test system: soybean (Glycine max); experiment: Test B pre-/postemergence plant response; settings: for Plant response rating, Soybean: Postemergence
Procedure, shortened: as §2

[8] = test system: downy bromegrass (Bromus tectorum); experiment: Test B pre-/postemergence plant response; settings: for Plant response rating, Bromegrass, Downy: Postemergence
Procedure, shortened: as §2

[9] = test system: woolly cupgrass (Eriochloa villosa); experiment: Test B pre-/postemergence plant response; settings: for Plant response rating, Cupgrass, Woolly: Postemergence
Procedure, shortened: as §2

[10] = test system: wild oat (Avena fatua); experiment: Test B pre-/postemergence plant response; settings: for Plant response rating, Oat, Wild: Postemergence
Procedure, shortened: as §2

[11] = test system: bermudagrass (Cynodon dactylon); experiment: Test B pre-/postemergence plant response; settings: for Plant response rating, Bermudagrass: Postemergence
Procedure, shortened: as §2

[12] = test system: wheat (Triticum aestivum); experiment: Test B pre-/postemergence plant response; settings: for Plant response rating, Wheat: Postemergence
Procedure, shortened: as §2

[13] = test system: velvetleaf (Abutilon theophrasti); experiment: Test B pre-/postemergence plant response; settings: for Plant response rating, Velvetleaf: Postemergence
Procedure, shortened: as §2

[14] = Flood (flooded paddy test), 62 g ai/ha, scale 0 to 100, 0 no effect, 100 complete control
[15] = Flood (flooded paddy test), 250 g ai/ha, scale 0 to 100, 0 no effect, 100 complete control
[16] = 8 g ai/ha, postemergence, 0-100 scale
[17] = 62 g ai/ha, scale 0 to 100, 0 no effect, 100 complete control

SMILES: Cn1ncc(O)c(-c2nn(-c3ccc(C(F)(F)F)cc3)cc2Br)c1=O [Compound 87, 4-[4-bromo-1-[4-(trifluoromethyl)phenyl]-1H-pyrazol-3-yl]-5-hydroxy-2-methyl-3(2H)-pyridazinone]
- pest or weed control at 250 g/ha ([1]; Heteranthera limosa, Flood (flooded paddy test), 250 g ai/ha, scale 0 to 100, 0 no effect, 100 complete control, read-out: Plant response rating, Ducksalad): 0%
- pest or weed control at 62 g/ha ([1]; Heteranthera limosa, Flood, 62 g ai/ha, scale 0 to 100, read-out: Plant response rating, Ducksalad): 0%
- pest or weed control at 250 g/ha ([2]; Echinochloa crus-galli, Flood (flooded paddy test), 250 g ai/ha, scale 0 to 100, 0 no effect, 100 complete control, read-out: Plant response rating, Barnyardgrass): 0%
- pest or weed control at 62 g/ha ([2]; Echinochloa crus-galli, Flood, 62 g ai/ha, scale 0 to 100, read-out: Plant response rating, Barnyardgrass): 0%
- pest or weed control at 250 g/ha ([3]; Cyperus difformis, Flood (flooded paddy test), 250 g ai/ha, scale 0 to 100, 0 no effect, 100 complete control, read-out: Plant response rating, Sedge, Umbrella): 0%
- pest or weed control at 62 g/ha ([3]; Cyperus difformis, Flood, 62 g ai/ha, scale 0 to 100, read-out: Plant response rating, Sedge, Umbrella): 0%
- plant injury at 250 g/ha ([4]; Oryza sativa, Flood (flooded paddy test), 250 g ai/ha, scale 0 to 100, 0 no effect, 100 complete control, read-out: Plant response rating, Rice): 0%
- plant injury at 62 g/ha ([4]; Oryza sativa, Flood, 62 g ai/ha, scale 0 to 100, read-out: Plant response rating, Rice): 0%

SMILES: Cc1nn(C)c(=O)c(-n2nc(-c3ccc(Cl)cc3)cc2Cl)c1O [Compound 59]
- Plant response rating, Ducksalad [1, 14]: 0
- Plant response rating, Ducksalad [1, 15]: 20
- Plant response rating, Barnyardgrass [2, 14]: 0
- Plant response rating, Barnyardgrass [2, 15]: 50
- Plant response rating, Sedge, Umbrella [3, 14]: 0
- Plant response rating, Sedge, Umbrella [3, 15]: 30
- Plant response rating, Rice [4, 14]: 10
- Plant response rating, Rice [4, 15]: 25
- Crabgrass, Large plant response rating [5, 16]: 20
- Plant response rating, Crabgrass, Large ([5]; 16 g ai/ha, scale 0 to 100): 45
- Plant response rating, Crabgrass, Large ([5]; 31 g ai/ha, scale 0 to 100): 55
- Plant response rating, Crabgrass, Large [5, 17]: 60
- Cocklebur plant response rating [6, 16]: 0
- Plant response rating, Cocklebur ([6]; 16 g ai/ha, scale 0 to 100): 0
- Plant response rating, Cocklebur ([6]; 31 g ai/ha, scale 0 to 100): 0
- Plant response rating, Cocklebur [6, 17]: 0
- Soybean plant response rating [7, 16]: 0
- Plant response rating, Soybean ([7]; 16 g ai/ha, scale 0 to 100): 0
- Plant response rating, Soybean ([7]; 31 g ai/ha, scale 0 to 100): 0
- Plant response rating, Soybean [7, 17]: 0
- Bromegrass, Downy plant response rating [8, 16]: 0
- Plant response rating, Bromegrass, Downy ([8]; 16 g ai/ha, scale 0 to 100): 5
- Plant response rating, Bromegrass, Downy ([8]; 31 g ai/ha, scale 0 to 100): 5
- Plant response rating, Bromegrass, Downy [8, 17]: 10
- Cupgrass, Woolly plant response rating [9, 16]: 55
- Plant response rating, Cupgrass, Woolly ([9]; 16 g ai/ha, scale 0 to 100): 60
- Plant response rating, Cupgrass, Woolly ([9]; 31 g ai/ha, scale 0 to 100): 65
- Plant response rating, Cupgrass, Woolly [9, 17]: 85
- Oat, Wild plant response rating [10, 16]: 45
- Plant response rating, Oat, Wild ([10]; 16 g ai/ha, scale 0 to 100): 60
- Plant response rating, Oat, Wild ([10]; 31 g ai/ha, scale 0 to 100): 70
- Plant response rating, Oat, Wild [10, 17]: 80
- Bermudagrass plant response rating [11, 16]: 0
- Plant response rating, Bermudagrass ([11]; 16 g ai/ha, scale 0 to 100): 0
- Plant response rating, Bermudagrass ([11]; 31 g ai/ha, scale 0 to 100): 0
- Plant response rating, Bermudagrass [11, 17]: 20
- Wheat plant response rating [12, 16]: 0
- Plant response rating, Wheat ([12]; 16 g ai/ha, scale 0 to 100): 15
- Plant response rating, Wheat ([12]; 31 g ai/ha, scale 0 to 100): 40
- Plant response rating, Wheat [12, 17]: 50
- Velvetleaf plant response rating [13, 16]: 0
- Plant response rating, Velvetleaf ([13]; 16 g ai/ha, scale 0 to 100): 0
- Plant response rating, Velvetleaf ([13]; 31 g ai/ha, scale 0 to 100): 0
- Plant response rating, Velvetleaf [13, 17]: 0

Source: patent publication US20100267561A1, “HERBICIDAL PYRIDAZINONE DERIVATIVES” (priority 2007, published 2010)
